Laboratory results published in US8859574B2 (IRM LLC, priority 2008, dated 2014).

These compounds were tested against T1, IGF-1R Ba/F3 (Homo sapiens, UniProt P08069) (assay: Ba/F3 Cell Viability Inhibition Assay (IGF-1R Ba/F3)). Conditions: Tel-TK transformed Ba/F3 cells, 48 hours, Britelite luminescence.
T1 construct: fused on or other part: TEL- (or BCR-) IGF-1R in Ba/F3: the kinase part holds the site
Assay type: cell-based, murine
How it was run: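 A 48 h compound treatment at 37 °C (3750 cells/well) was followed by Britelite luminescence to measure viability. Cells were Ba/F3 pro-B cells, IL-3-independent via TEL-fused IGF-1R kinase transduction. A logistic fit gave IC50 as 50% viability relative to DMSO control.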

T1 sequence (P08069 999-1274 limits assumed): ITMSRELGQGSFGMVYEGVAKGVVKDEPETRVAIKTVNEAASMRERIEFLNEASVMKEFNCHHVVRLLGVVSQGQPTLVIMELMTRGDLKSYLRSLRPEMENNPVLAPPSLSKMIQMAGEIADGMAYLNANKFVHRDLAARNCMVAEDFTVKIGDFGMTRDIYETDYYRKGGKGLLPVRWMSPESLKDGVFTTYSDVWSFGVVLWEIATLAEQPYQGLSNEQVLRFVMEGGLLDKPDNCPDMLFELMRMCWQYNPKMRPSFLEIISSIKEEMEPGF

| Structure (SMILES) | IC50 [µM] |
| --- | --- |
| Cc1cc(Nc2nc(Nc3cc(C)c(C4CCCCN4Cc4c(C)noc4C)cc3C)ncc2Cl)n[nH]1 (stereo not drawn) [Compound 191, 5-chloro-N2-(4-(1-((3,5-dimethylisoxazol-4-yl)methyl)piperidin-2-yl)-2,5-dimethylphenyl)-N4-(5-methyl-1H-pyrazol-3-yl)pyrimidine-2,4-diamine] | 0.113 |
| Cc1cc(Nc2nc(Nc3cc(C)c(C4CCN(C(=O)C5(O)CC5)CC4)cc3F)ncc2Cl)n[nH]1 [Compound 192, (4-(4-(5-chloro-4-(5-methyl-1H-pyrazol-3-ylamino)pyrimidin-2-ylamino)-5-fluoro-2-methylphenyl)piperidin-1-yl)(1-hydroxycyclopropyl)methanone] | 0.021 |
| Cc1cc(Nc2nc(Nc3cc(C)c(C4CCCCN4C(=O)C4(O)CC4)cc3C)ncc2Cl)n[nH]1 (stereo not drawn) [Compound 193, (2-(4-(5-chloro-4-(5-methyl-1H-pyrazol-3-ylamino)pyrimidin-2-ylamino)-2,5-dimethylphenyl)piperidin-1-yl)(1-hydroxycyclopropyl)methanone] | 0.076 |
| Cc1cc(Nc2nc(Nc3cc(C)c(C4CCN(S(=O)(=O)CCCN5CCOCC5)CC4)cc3C)ncc2Cl)n[nH]1 [Compound 194, 5-Chloro-N^2-(2,5-dimethyl-4-(1-(3-morpholinopropylsulfonyl)piperidin-4-yl)phenyl)-N^4-(5-methyl-1H-pyrazol-3-yl)pyrimidine-2,4-diamine] | 0.013 |
| Cc1cc(Nc2nc(Nc3cc(C)c(C4CCN(S(=O)(=O)CCCN5CCC5)CC4)cc3C)ncc2Cl)n[nH]1 [Compound 195, N2-(4-(1-(3-(azetidin-1-yl)propylsulfonyl)piperidin-4-yl)-2,5-dimethylphenyl)-5-chloro-N4-(5-methyl-1H-pyrazol-3-yl)pyrimidine-2,4-diamine] | 0.027 |
| Cc1cc(Nc2nc(Nc3cc(C)c(C4CCN(S(=O)(=O)CCCN5C[C@@H](O)[C@H](O)C5)CC4)cc3C)ncc2Cl)n[nH]1 [Compound 196, (3R,4R)-1-(3-(4-(4-(5-chloro-4-(5-methyl-1H-pyrazol-3-ylamino)pyrimidin-2-ylamino)-2,5-dimethylphenyl)piperidin-1-ylsulfonyl)propyl)pyrrolidine-3,4-diol] | 0.37 |
| Cc1cc(Nc2nc(Nc3cc(C)c(C4CCCCN4C[C@H](O)C(F)(F)F)cc3C)ncc2Cl)n[nH]1 (stereo partly drawn) [Compound 197, (2S)-3-(2-(4-(5-chloro-4-(5-methyl-1H-pyrazol-3-ylamino)pyrimidin-2-ylamino)-2,5-dimethylphenyl)piperidin-1-yl)-1,1,1-trifluoropropan-2-ol] | 0.21 |
| Cc1cc(Nc2nc(Nc3cc(C)c(C4CCN(CC5(C#N)CC5)CC4)cc3C)ncc2Cl)n[nH]1 [Compound 198, 1-((4-(4-(5-chloro-4-(5-methyl-1H-pyrazol-3-ylamino)pyrimidin-2-ylamino)-2,5-dimethylphenyl)piperidin-1-yl)methyl)cyclopropanecarbonitrile] | 0.022 |
| Cc1cc(Nc2nc(Nc3cc(C)c(C4CCN(CC#N)CC4)cc3F)ncc2Cl)n[nH]1 [Compound 199, 2-(4-(4-(5-chloro-4-(5-methyl-1H-pyrazol-3-ylamino)pyrimidin-2-ylamino)-5-fluoro-2-methylphenyl)piperidin-1-yl)acetonitrile] | 0.077 |
| Cc1cc(Nc2nc(Nc3cc(C)c(C4CCN(CCC#N)CC4)cc3F)ncc2Cl)n[nH]1 [Compound 200, 3-(4-(4-(5-chloro-4-(5-methyl-1H-pyrazol-3-ylamino)pyrimidin-2-ylamino)-5-fluoro-2-methylphenyl)piperidin-1-yl)propanenitrile] | 0.036 |
| Cc1cc(Nc2nc(Nc3cc(C)c(C4CCCN(C[C@H](O)C(F)(F)F)C4)cc3C)ncc2Cl)n[nH]1 (stereo partly drawn) [Compound 201, (2S)-3-(3-(4-(5-chloro-4-(5-methyl-1H-pyrazol-3-ylamino)pyrimidin-2-ylamino)-2,5-dimethylphenyl)piperidin-1-yl)-1,1,1-trifluoropropan-2-ol] | 0.046 |
| Cc1cc(Nc2nc(Nc3cc(C)c(C4CCN(CC(N)=O)CC4)cc3C)ncc2C(F)(F)F)n[nH]1 [Compound 202, 2-(4-(2,5-dimethyl-4-(4-(5-methyl-1H-pyrazol-3-ylamino)-5-(trifluoromethyl)pyrimidin-2-ylamino)phenyl)piperidin-1-yl)acetamide] | 0.02 |
| CNC(=O)CN1CCC(c2cc(C)c(Nc3ncc(C(F)(F)F)c(Nc4cc(C)[nH]n4)n3)cc2C)CC1 [Compound 203, 2-(4-(2,5-dimethyl-4-(4-(5-methyl-1H-pyrazol-3-ylamino)-5-(trifluoromethyl)pyrimidin-2-ylamino)phenyl)piperidin-1-yl)-N-methylacetamide] | 0.015 |
| Cc1cc(C2CCN(CCO)CC2)c(C)cc1Nc1ncc(Cl)c(Nc2cc(C3CC3)[nH]n2)n1 [Compound 204, 2-(4-(4-(5-chloro-4-(5-cyclopropyl-1H-pyrazol-3-ylamino)pyrimidin-2-ylamino)-2,5-dimethylphenyl)piperidin-1-yl)ethanol] | 0.016 |
| CCN1CCC(c2cc(C)c(Nc3ncc(Cl)c(Nc4cc(C5CC5)[nH]n4)n3)cc2C)CC1 [Compound 205, 5-chloro-N4-(5-cyclopropyl-1H-pyrazol-3-yl)-N2-(4-(1-ethylpiperidin-4-yl)-2,5-dimethylphenyl)pyrimidine-2,4-diamine] | 0.019 |
| Cc1cc(Nc2nc(Nc3cc(C)c(C4CCN(C=O)CC4)cc3F)ncc2Cl)n[nH]1 [Compound 206, 4-(4-(5-chloro-4-(5-methyl-1H-pyrazol-3-ylamino)pyrimidin-2-ylamino)-5-fluoro-2-methylphenyl)piperidine-1-carbaldehyde] | 0.03 |
| Cc1cc(Nc2nc(Nc3cc(C)c(C4CCN(C5CCOCC5)CC4)cc3F)ncc2Cl)n[nH]1 [Compound 209, 5-chloro-N^2-(2-fluoro-5-methyl-4-(1-(tetrahydro-2H-pyran-4-yl)piperidin-4-yl)phenyl)-N^4-(5-methyl-1H-pyrazol-3-yl)pyrimidine-2,4-diamine] | 0.027 |
| Cc1cc(Nc2nc(Nc3cc(C)c(C4CCN(C5CC5)CC4)cc3F)ncc2Cl)n[nH]1 [Compound 210, 5-chloro-N^2-(4-(1-cyclopropylpiperidin-4-yl)-2-fluoro-5-methylphenyl)-N^4-(5-methyl-1H-pyrazol-3-yl)pyrimidine-2,4-diamine] | 0.032 |
| CCN1CCC(c2cc(C)c(Nc3ncc(Cl)c(Nc4cc(C)[nH]n4)n3)cc2C)CC1 [Compound 211, 5-chloro-N2-(4-(1-ethylpiperidin-4-yl)-2,5-dimethylphenyl)-N4-(5-methyl-1H-pyrazol-3-yl)pyrimidine-2,4-diamine] | 0.009 |
| COCCN1CCC(c2cc(C)c(Nc3ncc(Cl)c(Nc4cc(C)[nH]n4)n3)cc2C)CC1 [Compound 212, 5-chloro-N2-(4-(1-(2-methoxyethyl)piperidin-4-yl)-2,5-dimethylphenyl)-N4-(5-methyl-1H-pyrazol-3-yl)pyrimidine-2,4-diamine] | 0.013 |
| COc1cc(Nc2ncc(Cl)c(Nc3cc(C)[nH]n3)n2)c(C)cc1C1CCN(C[C@H](O)C(F)(F)F)CC1 [Compound 213, (S)-3-(4-(4-(5-chloro-4-(5-methyl-1H-pyrazol-3-ylamino)pyrimidin-2-ylamino)-2-methoxy-5-methylphenyl)piperidin-1-yl)-1,1,1-trifluoropropan-2-ol] | 0.012 |
